# Legend:
# S. aureus DSM 20231 [1] = test: fitness (endpoint OD595 vs no drug) (fraction); higher = more growth
# Method in brief: (§1)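 Fitness was measured as bacterial growth in 384-well plates inoculated at OD595 0.01 (30 µl, or 55 µl for S. pneumoniae). Media were TSB, LB Lennox or CY, at 37 °C. OD595 was read every 30 min for 14 h and background-subtracted against the first reading. Fitness is OD595 at the transition into stationary phase divided by the robust mean of no-drug control wells, capped at 1.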
# S. aureus Newman [2] = test: as above
# Method in brief: as §1
# S. aureus DSM 20231 [3] = test: Bliss interaction score (quartile over a dose matrix) (fitness difference); higher = more antagonism (negative = synergy)
# Method in brief: (§2)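 The Bliss score was calculated by subtracting the expected fitness, the product of single-drug values, from the observed fitness. OD595 at entry into stationary phase, over the plate's robust no-drug mean and capped at 1, served as the fitness readout. Single-drug values were inferred from combination data, and scores are summarised by quartiles across technical, biological and donor/recipient replicates.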
# B. subtilis 168 = test: as above
# Method in brief: as §2
# S. aureus Newman [4] = test: as above
# Method in brief: as §2
# S. pneumoniae D39V = test: as above
# Method in brief: as §2
# [5] = first compound 0.75 µg/mL, partner 0.0156 µg/mL
# [6] = first compound 0.75 µg/mL, partner 0.0312 µg/mL
# [7] = first compound 0.75 µg/mL, partner 0.0625 µg/mL
# [8] = first compound 1.5 µg/mL, partner 0.0156 µg/mL
# [9] = first compound 1.5 µg/mL, partner 0.0312 µg/mL
# [10] = first compound 1.5 µg/mL, partner 0.0625 µg/mL
# [11] = first compound 3 µg/mL, partner 0.0312 µg/mL
# [12] = first compound 0.75 µg/mL, partner 0.1562 µg/mL, main component drawn
# [13] = first compound 0.75 µg/mL, partner 0.3125 µg/mL, main component drawn
# [14] = first compound 0.75 µg/mL, partner 0.625 µg/mL, main component drawn
# [15] = first compound 1.5 µg/mL, partner 0.1562 µg/mL, main component drawn
# [16] = first compound 1.5 µg/mL, partner 0.625 µg/mL, main component drawn
# [17] = first compound 3 µg/mL, partner 0.3125 µg/mL, main component drawn
# [18] = first compound 3 µg/mL, partner 0.625 µg/mL, main component drawn
# 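For Bliss interaction score (quartile over a dose matrix) in this document: first quartile when negative (synergy) and third quartile when positive (antagonism).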
compound,measurement,setting,value
O=C(N[C@H](CO)[C@H](O)c1ccc([N+](=O)[O-])cc1)C(Cl)Cl [Chloramphenicol] + Cc1onc(-c2ccccc2)c1C(=O)N[C@@H]1C(=O)N2[C@@H]1SC(C)(C)[C@@H]2C(=O)O [Oxacillin],fitness,S. aureus DSM 20231 [1]; [5],0.677
same,fitness,S. aureus DSM 20231 [1]; [6],0.6
same,fitness,S. aureus DSM 20231 [1]; [7],0.489
same,fitness,S. aureus DSM 20231 [1]; [8],0.461
same,fitness,S. aureus DSM 20231 [1]; [9],0.392
same,fitness,S. aureus DSM 20231 [1]; [10],0.478
same,fitness,S. aureus DSM 20231 [1]; [11],0.113
same,fitness,"S. aureus DSM 20231 [1]; first compound 3 µg/mL, partner 0.0625 µg/mL",0.0972
same,fitness,S. aureus Newman [2]; [5],0.734
same,fitness,S. aureus Newman [2]; [6],0.617
same,fitness,S. aureus Newman [2]; [7],0.555
same,fitness,S. aureus Newman [2]; [8],0.573
same,fitness,S. aureus Newman [2]; [9],0.484
same,fitness,S. aureus Newman [2]; [10],0.359
same,fitness,"S. aureus Newman [2]; first compound 3 µg/mL, partner 0.0156 µg/mL",0.253
same,fitness,S. aureus Newman [2]; [11],0.143
same,Bliss interaction score,S. aureus DSM 20231 [3],0.0696
same,Bliss interaction score,B. subtilis 168,-0.0473
same,Bliss interaction score,S. aureus Newman [4],0.0445
same,Bliss interaction score,S. pneumoniae D39V,0.0937
O=C(N[C@H](CO)[C@H](O)c1ccc([N+](=O)[O-])cc1)C(Cl)Cl [Chloramphenicol] + CCCCCCCCCC(=O)N[C@@H]1[C@H]([C@@H]([C@H](O[C@H]1OC2=C3C=C4C=C2OC5=C(C=C(C=C5)[C@H]([C@H]6C(=O)N[C@@H](C7=C(C(=CC(=C7)O)OC8[C@H]([C@H]([C@@H]([C@H](O8)CO)O)O)O)C9=C(C=CC(=C9)[C@H](C(=O)N6)NC(=O)[C@@H]4NC(=O)[C@@H]1C2=CC(=CC(=C2)OC2=C(C=CC(=C2)[C@H](C(=O)N[C@H](CC2=CC(=C(O3)C=C2)Cl)C(=O)N1)N)O)O)O)C(=O)O)O[C@H]1[C@@H]([C@H]([C@@H]([C@H](O1)CO)O)O)NC(=O)C)Cl)CO)O)O [Teicoplanin],fitness,S. aureus DSM 20231 [1]; [12],0.813
same,fitness,S. aureus DSM 20231 [1]; [13],0.804
same,fitness,S. aureus DSM 20231 [1]; [14],0.915
same,fitness,S. aureus DSM 20231 [1]; [15],0.638
same,fitness,S. aureus DSM 20231 [1]; [16],0.739
same,fitness,"S. aureus DSM 20231 [1]; first compound 3 µg/mL, partner 0.1562 µg/mL, main component drawn",0.129
same,fitness,S. aureus DSM 20231 [1]; [17],0.141
same,fitness,S. aureus DSM 20231 [1]; [18],0.149
same,fitness,S. aureus Newman [2]; [12],0.865
same,fitness,S. aureus Newman [2]; [13],0.876
same,fitness,"S. aureus Newman [2]; first compound 0.75 µg/mL, partner 0.62 µg/mL, one replicate, main component drawn",0.876
same,fitness,S. aureus Newman [2]; [14],0.842
same,fitness,"S. aureus Newman [2]; first compound 0.75 µg/mL, partner 1.24 µg/mL, one replicate, main component drawn",0.872
same,fitness,"S. aureus Newman [2]; first compound 0.75 µg/mL, partner 2.48 µg/mL, one replicate, main component drawn",0.584
same,fitness,S. aureus Newman [2]; [15],0.666
same,fitness,"S. aureus Newman [2]; first compound 1.5 µg/mL, partner 0.3125 µg/mL, main component drawn",0.679
same,fitness,"S. aureus Newman [2]; first compound 1.5 µg/mL, partner 0.62 µg/mL, one replicate, main component drawn",0.634
same,fitness,S. aureus Newman [2]; [16],0.725
same,fitness,"S. aureus Newman [2]; first compound 1.5 µg/mL, partner 1.24 µg/mL, one replicate, main component drawn",0.578
same,fitness,"S. aureus Newman [2]; first compound 1.5 µg/mL, partner 2.48 µg/mL, one replicate, main component drawn",0.512
same,fitness,S. aureus Newman [2]; [17],0.112
same,fitness,"S. aureus Newman [2]; first compound 3 µg/mL, partner 0.62 µg/mL, one replicate, main component drawn",0.256
same,fitness,S. aureus Newman [2]; [18],0.13
same,fitness,"S. aureus Newman [2]; first compound 3 µg/mL, partner 1.24 µg/mL, one replicate, main component drawn",0.191
same,Bliss interaction score,S. aureus DSM 20231 [3]; main component drawn,0.143
same,Bliss interaction score,B. subtilis 168; main component drawn,-0.0728
same,Bliss interaction score,S. aureus Newman [4]; main component drawn,0.151
same,Bliss interaction score,S. pneumoniae D39V; main component drawn,-0.0708

# From the supplement of paper PMC10627819
